Consider 2 compounds from patent EP0041047A2, “Dioxide compounds, process for their preparation and their use” (CIBA-GEIGY AG, priority 1980, dated 1981).

In assay [1] the test system is Escherichia coli 205 R^+ TEM. The experiment in a line: Protection of infected mice, subcutaneous application (ED50). In kind it is in vivo, Maus. From the text:
(§1) Aufgrund dieser ß-Lactamase-inhibierenden Wirkung erhöhen die Verbindungen der vorliegenden Erfindung die Wirkung von β-Lactamantibiotika in vitro und in vivo, wie durch Vergleich der antibiotischen Wirkungen von Verbindungen der vorliegenden Erfindung und von β-Lactamantibiotika allein und in Kombination miteinander festgestellt werden kann. Beispielsweise liegen in vitro die MIC-Werte von 1:1 Kombinationen der erfindungsgemässen Verbindung der Formel (I), worin R1 Hydroxy und R2 Carboxy bedeuten, oder des Natriumsalzes davon mit Ampicillin, Cefsulodin (CGP7174/E) oder Cefotiam (CGP14221/E) gegen eine Reihe der obengenannten ß-Lactamase produzierenden Mikroorganismen signifikant niedriger als die MIC-Werte der Einzelverbindungen. In vivo, beispielsweise bei subcutaner Applikation an Mäusen, die mit ß-Lactamase produzierenden Mikroorganismen infiziert wurden, z.B. mit Escherichia coli 205 R^+ TEM oder Morganella morganii 2359, wurde eine signifikante Erniedrigung der ED50-Werte gegenüber denjenigen der Einzelkomponenten festgestellt. Einige Werte sind in der folgenden Tabelle zusammengestellt: […]

The test system of assay [2] is Morganella morganii 2359. The description is as above. In kind it is in vivo. To be noted: infecting microorganism Morganella morg. 2359.
Text: as §1

For `CN(C)CCn1nnnc1SCC1=C(C(=O)O)N2C(=O)[C@@H](NC(=O)Cc3csc(N)n3)[C@H]2SC1` [B, Cefotiam], the ED50 is 70 mg/kg in assay [1] (Escherichia coli, sc, read-out: s.c. ED50 (mg/kg, Maus)) and 75 mg/kg in assay [2] (Morganella morganii, sc, Maus).

On to “(3R, 5R, 6R)-2,2-Dimethyl-6-hydroxymethylpenam-3-carbonsäure-1,1-dioxid-natriumsalz”, for which the “s.c. ED50 (mg/kg, Maus)” value in assay [1] (Maus, s.c., infecting microorganism Esch.coli: 205 RT) is 100 mg/kg; in assay [2] it was 100 mg/kg.
